Literature values, collected in patent US20100130528A1, “ADAMANTANE MODULATORS OF NMDA RECEPTOR AND/OR 5HT3 RECEPTOR” (AUSPEX PHARMACEUTICALS, INC., priority 2008, published 2010).

Assays:
[1] = in man
[2] = in vivo

CC12CC3CC(C)(C1)CC(N)(C3)C2 [memantine, 1-amino-3,5-dimethyl-adamantane]
circulating memantine-related material present as the parent compound [1]: about 80%
cytochrome P450 catalysed metabolism (cytochrome P450): No cytochrome P450 catalysed metabolism has been detected
adverse effects [2]: fatigue, pain, hypertension, dizziness, headache, constipation, vomiting, confusion, somnolence, hallucination, cough, and dyspnea
